# Data as given in article PMC9033183 (RSC Advances, 2021).
# Where “and” joins values, the source holds several entries; their conditions need not be identical. Identical values can stand only once. Entries after “also recorded” stand apart in the source; their conditions may differ.
# What was measured:
# aldose reductase (ALR2) = aldose reductase (ALR2) (Bos taurus, UniProt P16116); assay: Aldose reductase; type: biochemical, calf; settings: for selectivity for ALR2 over ALR1, result in words: ALR2 IC50 compared with ALR1 percent inhibition
# [1] = target: aldehyde reductase (ALR1) (Bos taurus, UniProt Q3ZCJ2); assay: Aldehyde reductase; type: biochemical, calf; settings: for IC50: ALR1 IC50(μM) ± SEM, enzyme partially purified from calf kidneys, triplicate
# Chain of aldehyde reductase (ALR1) (Q3ZCJ2 whole entry): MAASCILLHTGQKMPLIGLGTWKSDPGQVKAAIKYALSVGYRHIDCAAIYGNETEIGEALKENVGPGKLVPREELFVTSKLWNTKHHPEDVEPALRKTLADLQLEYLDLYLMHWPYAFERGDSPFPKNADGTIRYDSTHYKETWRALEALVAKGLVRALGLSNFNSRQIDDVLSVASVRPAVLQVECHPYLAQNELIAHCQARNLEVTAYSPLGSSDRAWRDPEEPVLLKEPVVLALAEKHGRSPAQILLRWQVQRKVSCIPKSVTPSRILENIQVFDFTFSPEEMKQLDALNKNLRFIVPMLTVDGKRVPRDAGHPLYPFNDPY
SMILES,"selectivity for ALR2 over ALR1, result in words (aldose reductase (ALR2))","ALR2 inhibitory activity, result in words (aldose reductase (ALR2))","ALR1 inhibitory activity, result in words [1]",IC50 [1]
"CC(=N/N=c1\scc(-c2ccc(Cl)cc2)n1-c1c(C)cccc1C)C12CC3CC(CC(C3)C1)C2 [Compound 6f, (2Z)-2-((1-(adamantan-1-yl)ethylidene)hydrazono)-4-(4-chlorophenyl)-3-(2,6-dimethylphenyl)-2,3-dihydrothiazole]",selective ALR2 inhibitors; also recorded: good inhibitory activity and selectively against ALR2,,,
"COc1cccc(-n2c(-c3ccc([N+](=O)[O-])cc3)cs/c2=N/N=C\c2c[nH]c3ccccc23)c1 [Compound 8f, (Z)-2-((E)-((1H-indol-3-yl)methylene)hydrazono)-3-(3-methoxyphenyl)-4-(4-nitrophenyl)-2,3-dihydrothiazole]",selective ALR2 inhibitor,,,
"CC(=N/N=c1\scc(-c2ccc(Br)cc2)n1-c1c(C)cccc1C)C12CC3CC(CC(C3)C1)C2 [Compound 6d, (2Z)-2-((1-(adamantan-1-yl)ethylidene)hydrazono)-4-(4-bromophenyl)-3-(2,6-dimethylphenyl)-2,3-dihydrothiazole]",selective ALR2 inhibitors; also recorded: good inhibitory activity and selectively against ALR2,,,
"O=[N+]([O-])c1ccc(-c2cs/c(=N/N=C\c3c[nH]c4ccccc34)n2Cc2ccccc2)cc1 [Compound 8e, (Z)-2-((E)-((1H-indol-3-yl)methylene)hydrazono)-3-benzyl-4-(4-nitrophenyl)-2,3-dihydrothiazole]",,active inhibitors,active inhibitors,2.94 ± 1.34 µM
"COc1cccc(-n2c(-c3ccc([N+](=O)[O-])cc3)cs/c2=N/N=C(/C)c2ccc3c(c2)NC(=O)CO3)c1 [Compound 5f, 6-((E)-1-((Z)-(3-(3-methoxyphenyl)-4-(4-nitrophenyl)thiazol-2(3H)-ylidene) hydrazono)ethyl)-2H-benzo[b][1,4]oxazin-3(4H)-one]",,active inhibitors,active inhibitors,3.13 µM and 3.24 µM
"CC(=N/N=c1\scc(-c2ccc(Br)cc2)n1-c1ccccc1C)C12CC3CC(CC(C3)C1)C2 [Compound 6c, (2Z)-2-((1-(adamantan-1-yl)ethylidene)hydrazono)-4-(4-bromophenyl)-3-(o-tolyl)-2,3-dihydrothiazole]",,active inhibitors,active inhibitors,4.07 ± 2.35 µM
"C/C(=N/N=c1/scc(-c2ccc(Cl)cc2)n1-c1ccccc1)c1ccc2c(c1)OCCO2 [Compound 7g, (Z)-4-(4-chlorophenyl)-2-((E)-(1-(2,3-dihydrobenzo[b][1,4]dioxin-6-yl)ethylidene) hydrazono)-3-phenyl-2,3-dihydrothiazole]",,active inhibitors,active inhibitors,3.14 ± 0.41 µM
"C/C(=N/N=c1/scc(-c2ccc(Br)cc2)n1-c1ccccc1)c1ccc2c(c1)OCCO2 [Compound 7a, (Z)-4-(4-bromophenyl)-2-((E)-(1-(2,3-dihydrobenzo[b][1,4]dioxin-6-yl)ethylidene) hydrazono)-3-phenyl-2,3-dihydrothiazole]",selective ALR2 inhibitors,,,
"CC(=N/N=c1\scc(-c2ccc(Br)cc2)n1-c1cccc2ccccc12)C12CC3CC(CC(C3)C1)C2 [Compound 6b, (2Z)-2-((1-(adamantan-1-yl)ethylidene)hydrazono)-4-(4-bromophenyl)-3-(naphthalen-1-yl)-2,3-dihydrothiazole]",,active inhibitors,active inhibitors,4.93 ± 1.86 µM
"C/C(=N/N=c1/scc(-c2ccc(Cl)cc2)n1Cc1ccccc1)c1ccc2c(c1)OCCO2 [Compound 7i, (Z)-3-benzyl-4-(4-chlorophenyl)-2-((E)-(1-(2,3-dihydrobenzo[b][1,4]dioxin-6-yl)ethylidene)hydrazono)-2,3-dihydrothiazole]",,active inhibitors,active inhibitors,2.2 ± 0.92 µM
"CC(=N/N=c1\scc(-c2ccc(Cl)cc2)n1Cc1ccccc1)C12CC3CC(CC(C3)C1)C2 [Compound 6e, (2Z)-2-((1-(adamantan-1-yl)ethylidene)hydrazono)-3-benzyl-4-(4-chlorophenyl)-2,3-dihydrothiazole]",selective ALR2 inhibitors; also recorded: good inhibitory activity and selectively against ALR2,,,
"C/C(=N/N=c1/scc(-c2ccc(Br)cc2)n1-c1c(C)cccc1C)c1ccc2c(c1)OCCO2 [Compound 7c, (Z)-4-(4-bromophenyl)-2-((E)-(1-(2,3-dihydrobenzo[b][1,4]dioxin-6-yl)ethylidene) hydrazono)-3-(2,6-dimethylphenyl)-2,3-dihydrothiazole]",selective ALR2 inhibitors,,,
"C/C(=N/N=c1/scc(-c2ccc(Cl)cc2)n1-c1ccc(F)cc1)c1ccc2c(c1)OCCO2 [Compound 7h, (Z)-4-(4-chlorophenyl)-2-((E)-(1-(2,3-dihydrobenzo[b][1,4]dioxin-6-yl)ethylidene) hydrazono)-3-(4-fluorophenyl)-2,3-dihydrothiazole]",,active inhibitors,active inhibitors,2.94 ± 1.73 µM
"C/C(=N/N=c1/scc(-c2ccc(Br)cc2)n1Cc1ccccc1)c1ccc2c(c1)OCCO2 [Compound 7b, (Z)-3-benzyl-4-(4-bromophenyl)-2-((E)-(1-(2,3-dihydrobenzo[b][1,4]dioxin-6-yl)ethylidene)hydrazono)-2,3-dihydrothiazole]",selective ALR2 inhibitors; also recorded: excellent selectivity; also recorded: considerably selective activity against ARL2; also recorded: significantly selective,,,
"CC(=N/N=c1\scc(-c2ccc(Br)cc2)n1-c1ccccc1)C12CC3CC(CC(C3)C1)C2 [Compound 6a, (2Z)-2-((1-(adamantan-1-yl)ethylidene)hydrazono)-4-(4-bromophenyl)-3-phenyl-2,3-dihydrothiazole]",,active inhibitors,active inhibitors,3.29 ± 1.47 µM
"COc1cccc(-n2c(-c3ccc(Br)cc3)cs/c2=N/N=C(/C)c2ccc3c(c2)NC(=O)CO3)c1 [Compound 5b, 6-((E)-1-((Z)-(4-(4-bromophenyl)-3-(3-methoxyphenyl)thiazol-2(3H)-ylidene) hydrazono)ethyl)-2H-benzo[b][1,4]oxazin-3(4H)-one]",,weak activity,weak activity,
"COc1cccc(-n2c(-c3ccc(Cl)cc3)cs/c2=N/N=C(/C)c2ccc3c(c2)NC(=O)CO3)c1 [Compound 5j, 6-((E)-1-((Z)-(4-(4-chlorophenyl)-3-(3-methoxyphenyl)thiazol-2(3H)-ylidene) hydrazono)ethyl)-2H-benzo[b][1,4]oxazin-3(4H)-one]",,weak activity,weak activity,
